Structures are written as SMILES.

The data set is described as follows: gradient 5% acetonitrile 3 min, to 50% in 2 min, to 85% in 15 min, held 3 min, 100 µL/min. The note with it: column: Zorbax Extend-C18 2.1 x 50 mm; eluents: water / acetonitrile, 0.1% formic acid. An outline of the steps: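 Values are retention times taken from adduct peaks that software picked and an analyst inspected. The pure standards were run as mixtures of ~100 molecules on HPLC linked to a quadrupole time-of-flight mass spectrometer, in positive and negative ionization mode. A Zorbax Extend-C18 column (2.1 × 50 mm, 1.8 μm) was used at 100 μL/min with water and acetonitrile, each including 0.1% formic acid.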
In the case of `CN1C(=O)c2cccn2CC1C(=O)NC1CCCCC1` (centres undefined), the RP-LC retention time stood at 681 s. With `Cc1nc2cc(-c3noc(CCc4ccccc4)n3)ccc2o1`, the RP-LC retention time came to 1050 s. For `Cc1ccc(Sc2nccnc2N2CCCC(C(=O)Nc3ccc(C)c(C)c3)C2)cc1` (centres undefined) the value was 1290 s; for `COc1ccc(CN2CN=C(Nc3nc(C)c4cc(C)ccc4n3)NC2)cc1`, 766 s; for `O=C(NCCS(=O)(=O)N1CCN(c2ccc(F)cc2)CC1)c1cccc([N+](=O)[O-])c1`, 834 s. With `O=C(Nc1cccc(C(F)(F)F)c1)NC1CCN(c2ccccc2)C1=O` (centres undefined), the RP-LC retention time was found to be 926 s.

Turning to `CSc1ccc(NC(=O)C2CCN(c3cnc4nc(C)c(C)nc4c3)CC2)cc1`, the RP-LC retention time was determined as 767 s. Next, `COc1ccc(-c2noc(-c3nn(-c4cccc(F)c4)ccc3=O)n2)cc1`: 874 s.

In turn, `O=C(Cn1nc2c(Oc3ccccc3)nccn2c1=O)NCCCc1ccccc1` registered an RP-LC retention time of 871 s.

Consider `CCCCCNC(=O)c1cn(C)nc1S(=O)(=O)N1CCSCC1`, for which the RP-LC retention time amounted to 897 s. For `Cc1ccc(-c2noc(Cn3c(=O)n(Cc4ccccc4)c(=O)c4sccc43)n2)cc1C` the value was 1160 s; for `O=C(Nc1ccc2c(c1)OCO2)C1COCC(=O)N1Cc1ccccc1` (centres undefined), 688 s. The compound `CCn1nnc(NCc2ccc(-c3cc(Cl)cc(Cl)c3)o2)n1` gave an RP-LC retention time of 1140 s. For `c1ccc(CN2CCCC(c3n[nH]c(C4CC4)n3)C2)nc1` (centres undefined) the value was 465 s. Next, `CCOc1ccc(-c2[nH]ncc2CNS(=O)(=O)Cc2c(F)cccc2Cl)cc1`: 882 s; `Cn1cc(-c2ccccc2)cc1C(=O)NCc1ccc(N2CCOCC2)cc1`: 892 s. Next, `O=C(c1cccs1)N1CCN(c2nnc3ccc(Cl)cn23)CC1`: 691 s; `Cn1ncc2c3ccccc3n(CC(=O)NCCCN3CCOCC3)c2c1=O`: 582 s; `COc1ccc(NC(=O)c2cn(-c3cc(N4CCCCC4)ncn3)cn2)cc1Cl`: 984 s.

In the case of `COc1ccccc1NC(=O)C1Cc2ccccc2CN1S(=O)(=O)c1ccccc1` (centres undefined), the RP-LC retention time was 1070 s.

On to `CC(=O)Nc1nc(-c2ccc3c(c2)N(C)C(=O)C(C)O3)cs1` (centres undefined), for which the RP-LC retention time was 739 s. Consider `O=C(CCc1ccccc1)NC1CCS(=O)(=O)C1` (centres undefined), for which the RP-LC retention time came out at 619 s.

The compound `CCc1noc([C@@H]2CC(F)(F)CN2C(=O)c2ccoc2)n1` came in with an RP-LC retention time of 757 s.

In the case of `Cc1cc(=O)n(CC(=O)NCc2ccc(F)cc2)c(N2CCOCC2)n1`, the RP-LC retention time was 647 s. In turn, `O=C(NCc1ccccc1Cl)C1CCCN(C(=O)c2cc(-c3ccccn3)n[nH]2)C1` (centres undefined) registered an RP-LC retention time of 680 s. For `Cc1ccccc1CNC(=O)C1(C)CCCN(C(=O)Nc2ccc(Br)cc2F)C1` (centres undefined) the value was 869 s; for `CCCn1cc2c3c(cccc31)CN(C(=O)Nc1cccc(C)c1)CC2`, 1070 s; for `Cc1cc(N2CCN(C(=O)Nc3ccccc3F)CC2)nc(N2CCCC2)n1`, 626 s.

Compound `N#Cc1ccc(-c2nc(C3CC(=O)N(c4ccc(F)cc4)C3)no2)cc1` (centres undefined) showed an RP-LC retention time of 897 s. `CCOc1ccc(S(=O)(=O)N2CCC(C(=O)N3CCN(C)CC3)CC2)cc1` registered an RP-LC retention time of 569 s. Next, `COc1ccccc1-c1noc(C2CCCN2C(=O)c2sc(C)nc2C)n1` (centres undefined): 750 s; `COc1ccc(-c2noc(C3CC(=O)N(c4cc(Cl)ccc4OC)C3)n2)cc1OC` (centres undefined): 884 s. In turn, `COc1ccc(CC(=O)N2CCC(Nc3ncnc4c3CCC4)C2)cc1` (centres undefined) returned an RP-LC retention time of 595 s. Consider `CCCNC(=O)C1CCCN(c2ccc(SCC(=O)Nc3ccc(OC)c(Cl)c3)nn2)C1` (centres undefined), for which the RP-LC retention time amounted to 688 s. Next, `CCOc1ccc(NC(=O)N2CCN(c3cc(C)nc(N4CCOCC4)n3)CC2)cc1`: 624 s; `Cn1cc(C(=O)NCCn2ncccc2=O)nn1`: 520 s. The compound `COc1cccc(OC)c1C(=O)Nc1nc2c(s1)CCc1ccccc1-2` yielded an RP-LC retention time of 1000 s.

`COc1c(C(=O)NC(C)C)sc2cccc(F)c12`: the RP-LC retention time is 968 s. For `O=C(C1CCC1)N1CCCC(OCc2nc(-c3ccncc3)no2)C1` (centres undefined) the value was 713 s; for `CC1CCN(C(=O)c2ccc(OCC3CCCN(C(=O)c4ccc(F)cc4)C3)cc2)CC1` (centres undefined), 995 s. Next, `Cc1ccc(NC(=O)Nc2ccc3nc(N4CCN(C)CC4)cc(C)c3c2)cc1F`: 614 s; `CCSc1nnc(-c2nn(C)c3c2CN(C(=O)c2cccc(N(C)C)c2)CC3)n1C`: 682 s; `COCCC(=O)N1CCCN(C2=NS(=O)(=O)C(c3ccc(C(C)C)cc3)=C2C)CC1`: 817 s. Next, `Cc1cc(C)cc(Oc2nccn3c(=O)n(CC(=O)NCc4ccco4)nc23)c1`: 1210 s; `O=C(Cn1cnc2c(nc3n2CCCCC3)c1=O)N1CCN(Cc2ccc3c(c2)OCO3)CC1`: 588 s; `Cc1ccc(Cl)cc1NC(=O)Cn1ncc2c(N3CCN(c4ccccn4)CC3)ncnc21`: 630 s. On to `CC(=O)c1cccc(S(=O)(=O)NCC2CCN(C(=O)c3cc4ccccc4o3)CC2)c1`, for which the RP-LC retention time turned out to be 781 s. Next, `CCN(CC)c1nc(NC)nc(-n2cnc(SC)n2)n1`: 897 s; `O=S(=O)(NCC(c1cccnc1)N1CCN(c2ccc(F)cc2)CC1)c1cccs1` (centres undefined): 618 s; `CC(C)n1cnc(S(=O)(=O)N2CCC(C(=O)N3CCN(c4cccc(Cl)c4)CC3)CC2)c1`: 876 s. `CN1CCCC1c1nc(C2CN(S(=O)(=O)Cc3ccccc3F)C2)no1` (centres undefined): the RP-LC retention time was determined as 626 s. Consider `Cc1cccc(-c2nc(C3CCN(C(=O)C(NC(=O)c4ccco4)C(C)C)CC3)no2)c1` (centres undefined), for which the RP-LC retention time was determined as 1010 s. Next, `Cc1ccccc1CNC(=O)C1CCCN(c2nnc(C)c3c(C)n(-c4ccccc4)nc23)C1` (centres undefined): 727 s; `CCCn1cc(C2=CCN(C(=O)Nc3ccc4c(c3)OCCO4)CC2)c2cccnc21`: 846 s.

`Cc1ccc(Oc2cccc(NC(=O)Cc3noc4ccccc34)c2)nn1` yielded an RP-LC retention time of 699 s. `Cc1cc(-c2nnc(-c3ccccc3)o2)c(C)n1CC(=O)Nc1ccc2c(c1)OCCO2` had an RP-LC retention time of 902 s.

In turn, `CCn1cnc(S(=O)(=O)N2CCC(C(=O)N3CCN(c4cc(Cl)ccc4C)CC3)CC2)c1` came in with an RP-LC retention time of 916 s. Next, `CSc1ccc(-c2nc3cnccn3c2Nc2ccc3c(c2)OCO3)cc1`: 890 s; `O=C(c1cccs1)N1CCCC(c2ccnc(-c3ccccc3)n2)C1` (centres undefined): 1020 s; `CCc1ccc(OCC(=O)Nc2nnc(SCc3nnc(-c4ccccc4C)o3)s2)cc1`: 1070 s.

In turn, `O=C(CCn1c(N2CCCC2)nc2ccsc2c1=O)N1CCN(c2ccccc2)CC1` yielded an RP-LC retention time of 814 s.

The compound `CCOC(=O)c1ccc(-c2c(C(=O)OCC)oc3cc(O)c(CC)cc3c2=O)o1` registered an RP-LC retention time of 955 s. Next, `O=C(Cc1nnc(-c2cnccn2)o1)Nc1cccc(F)c1`: 679 s; `CNC(=O)c1cc(=O)n(CC(=O)Nc2ccc3c(c2)OCO3)c2ccccc12`: 658 s; `CCCNC(=O)N1N=C(c2ccc(N)cc2)c2cc3c(cc2C1C)OCO3` (centres undefined): 854 s. Next, `Cc1ccc(C)c(NC(=O)N2C[C@H](c3nc(-c4cccnc4)no3)[C@@H](C)C2)c1`: 794 s; `CN(C(=O)CN1C(=O)NC2(CCC(C(C)(C)C)CC2)C1=O)c1ccccc1` (centres undefined): 979 s. Next, `Cc1ccc(-c2nc(NC(=O)c3sc(C)nc3C)sc2C)cc1`: 1000 s; `O=C1NCCCn2cc(S(=O)(=O)N3CCN(c4ccc(Cl)cc4)CC3)cc21`: 804 s; `O=C(c1ccc(-c2ccc([N+](=O)[O-])cc2Cl)o1)N1CCOCC1`: 778 s. `CC(C)(C)c1ccc(C(=O)Nc2cnc(N3CCOCC3)nc2)cc1` displayed an RP-LC retention time of 923 s.

Compound `CCS(=O)(=O)N1CCC(Cc2nncn2-c2ccccc2)C1` (centres undefined) registered an RP-LC retention time of 631 s. For the compound `Cc1ccc(NC(=O)N2CCCC(C)(C(=O)NCc3ccccc3)C2)cc1F` (centres undefined), the RP-LC retention time worked out at 945 s. For `O=C(CN1C(=O)C2CCCCN2c2ccc(C(=O)N3CCCC3)cc21)NC1CCCC1` (centres undefined) the value was 732 s. With `Cc1ccc(NC(=O)C2CCCN2S(=O)(=O)c2cc3c(cc2C)NC(=O)C(C)O3)c(Cl)c1` (centres undefined), the RP-LC retention time was determined as 914 s. Compound `CCc1ccccc1NC(=O)N(C)CCc1noc(COc2ccccc2)n1` displayed an RP-LC retention time of 962 s. Take `CC1CCCCN1CCNS(=O)(=O)c1ccccc1-c1nc(-c2ccc(F)cc2)no1` (centres undefined): the RP-LC retention time was 755 s. Regarding `CCc1nc(-c2csc(S(=O)(=O)N3CCCC(C(=O)Nc4ccccc4CC)C3)c2)no1` (centres undefined), the RP-LC retention time is 1060 s. For `COc1ccc(Nc2cc(C(=O)N3CCCCC3)nc3c(OC)cccc23)cc1OC` the value was 570 s.

The values are drawn from the METLIN SMRT retention time set (Domingo-Almenara et al. 2019).
